In the supplement of paper PMC11208160:

Experiment: recombinant barcode read abundance after kanamycin selection (control-corrected) (log10(CPM+1)); higher = more efficient recombination; sequences stand for … in AGTGCAGAGAAAATCGGCCAGTTTTCTCTGCCTGCAGTCCGCATGCCGT…AGATTTATGCAGCGGACTGCCTTTCTCCCAAAGTGATAAACCGGACAGTATCATGGACCGGTTTTCCCGGTAATCCGTATTTGCAAGGTTGGTTTCACT; site = the 11-nt target
Summary of the method: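 Oligos holding a promoter, target, barcode and the J23119-driven first 104 bases of the bridge RNA were Gibson-cloned into a vector that supplied the other 73 bp plus a T7-inducible recombinase. This library was co-electroporated with a donor plasmid into E. coli. Two replicates went on chloramphenicol/ampicillin LB agar (control) and two on chloramphenicol/ampicillin/kanamycin with 0.1 mM IPTG. Recombination efficiency is read from averaged, control-corrected barcode counts per million at recombinant junctions, reported as log10(CPM+1).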
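Further: IS621 recombinase and bridge RNA in Escherichia coli cells.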

Sequence | recombinant barcode read abundance (log10)
GTTTGACCTTGGGTTCTAACCTGTTGCTT (site GTTTGACCTAA) | 0.532
GTTTGACCTTGGGTTCTAACCTGTTGCTT (site GTTTGCCCTAA) | 0.229
GTTTGACCTTGGGTTCTAACCTGTTGCTT (site GTTTGGCCTAA) | 0.171
GTTTGACCTTGGGTTCTAACCTGTTGCTT (site GTTTGTCCTAA) | 0.0874
GTTTGGACTTGGGTTCTAACCTGTTGCTA (site GTTTGGACTCA) | 0.178
GTTTGGACTTGGGTTCTAACCTGTTGCTA (site GTTTGGACTTA) | 0.904
GTTTGGTCTTGGGTTCTAACCTGTTGCCT (site GTTTGATCTAG) | 0.285
GTTTGGTCTTGGGTTCTAACCTGTTGCCT (site GTTTGCTCTAG) | 0.0727
GTTTGGTCTTGGGTTCTAACCTGTTGCCT (site GTTTGGTCTAG) | 0.405
GTTTGGTCTTGGGTTCTAACCTGTTGCCT (site GTTTGTTCTAG) | 0.0972
GTTTGTTCTTGGGTTCTAACCTGTTGCCT (site GTTTGATCTAG) | 0.0239
GTTTGTTCTTGGGTTCTAACCTGTTGCCT (site GTTTGCTCTAG) | 0.0623
GTTTGTTCTTGGGTTCTAACCTGTTGCCT (site GTTTGGTCTAG) | 0.237
GTTTGTTCTTGGGTTCTAACCTGTTGCCT (site GTTTGTTCTAG) | 0.254
TAAACAGCTTGGGTTCTAACCTGTTGCCT (site TAAACAGCTAG) | 0.0976
TAAACAGCTTGGGTTCTAACCTGTTGCCT (site TACACAGCTAG) | 0.00929
TAAACAGCTTGGGTTCTAACCTGTTGCCT (site TAGACAGCTAG) | 0.171
TAAACAGCTTGGGTTCTAACCTGTTGCCT (site TATACAGCTAG) | 0.0779
TAAAGAGCTTGGGTTCTAACCTGTTGCGG (site TAAAGAGCTCC) | 1.57

Sequence | recombinant barcode read abundance (log10)
TAAAGAGCTTGGGTTCTAACCTGTTGCGG (site TACAGAGCTCC) | 0.153
TAAAGAGCTTGGGTTCTAACCTGTTGCGG (site TAGAGAGCTCC) | 0.109
TAAAGAGCTTGGGTTCTAACCTGTTGCGG (site TATAGAGCTCC) | 0.236
TAACCCACTTGGGTTCTAACCTGTTGCCT (site TAACCCACTAG) | 1.1
TAACCCACTTGGGTTCTAACCTGTTGCCT (site TTACGCACTAG) | 0.334
TAACCTACTTGGGTTCTAACCTGTTGCAT (site TAACATACTAT) | 0.0358
TAACCTACTTGGGTTCTAACCTGTTGCAT (site TAACCTACTAT) | 0.802
TAACCTACTTGGGTTCTAACCTGTTGCAT (site TAACGTACTAT) | 0.169
TAACCTACTTGGGTTCTAACCTGTTGCAT (site TAACTTACTAT) | 0.0519
TAACGATCTTGGGTTCTAACCTGTTGCAT (site TAACGATCTAT) | 0.497
TAACGATCTTGGGTTCTAACCTGTTGCAT (site TAACGGTCTAA) | 0.0405
TAACGGTCTTGGGTTCTAACCTGTTGCTT (site TAACGATCTAT) | 0.44
TAACGGTCTTGGGTTCTAACCTGTTGCTT (site TAACGGTCTAA) | 1.09
TAACGTACTTGGGTTCTAACCTGTTGCGG (site TAACGTACTCC) | 1.41
TAACGTACTTGGGTTCTAACCTGTTGCGG (site TAACGTCCTAC) | 0.113
TAACTCTCTTGGGTTCTAACCTGTTGCCT (site TAACTCTCTAG) | 1.05
TAACTCTCTTGGGTTCTAACCTGTTGCCT (site TCACTCTCTAG) | 0.0372
TAACTCTCTTGGGTTCTAACCTGTTGCCT (site TGACTCTCTAG) | 0.0157
TAACTCTCTTGGGTTCTAACCTGTTGCCT (site TTACTCTCTAG) | 0.145
